Data from publication PMC12454493, “Insight on novel sulfamoylphenyl pyrazole derivatives as anticancer carbonic anhydrase inhibitors” (Molecular Diversity, 2024).
Like-named read-outs stand apart in the source and are kept apart here.

Columns and labels:
[1] = system: MDA-MB-468; assay: NCI-60 one-dose SRB screen (Breast Cancer); assay type: cell-based; conditions: Homo sapiens, single dose 10 µM, 48 h, read-out: Growth inhibition percent (GI %)
[2] = system: MDA-MB-231/ATCC; assay: NCI-60 one-dose SRB screen (Breast Cancer); assay type: cell-based; conditions: Homo sapiens, single dose 10 µM, 48 h, read-out: Growth inhibition percent (GI %)
[3] = system: BT-549; assay: NCI-60 one-dose SRB screen (Breast Cancer); assay type: cell-based; conditions: Homo sapiens, single dose 10 µM, 48 h, read-out: Growth inhibition percent (GI %)
[4] = system: MCF-7; assay: NCI-60 one-dose SRB screen (Breast Cancer); assay type: cell-based; conditions: Homo sapiens, MCF7, single dose 10 µM, 48 h, read-out: Growth inhibition percent (GI %)
[5] = system: HS 578T; assay: NCI-60 one-dose SRB screen (Breast Cancer); assay type: cell-based; conditions: Homo sapiens, single dose 10 µM, 48 h, read-out: Growth inhibition percent (GI %)
[6] = system: T-47D; assay: NCI-60 one-dose SRB screen (Breast Cancer); assay type: cell-based; conditions: Homo sapiens, T47D, single dose 10 µM, 48 h, read-out: Growth inhibition percent (GI %)
[7] = system: panel of 60 cancer cell lines; assay: NCI-60 one-dose SRB screen, range over the whole panel; assay type: cell-based; conditions: Homo sapiens; single dose 10 µM, SRB assay, range over the tested cell lines; read-out: growth inhibition (GI %) range over the panels
Method: The National Cancer Institute (NCI) Developmental Therapeutic Program (www.dtp.nci.nih.gov) selected the 20 novel synthesized compounds 4a-e, 5a-e, 6a-c, 9a-e, 10 and 11 to test for their anticancer activity at a single dose of 10 µM using SRB assay. […] Supplementary Data S3; Table S1 presents the detailed screening results of the most promising compounds. The preliminary screening’s detailed results for the remaining compounds are elucidated in the (Supplementary Data S3; Table S2).
The guidelines of the Drug Evaluation Branch’s protocol at the NCI in Bethesda served as the basis for the in vitro anticancer screening assays. at one dose 10 µM against a panel of 60 cancer cell lines. The human tumor cell lines used belonged to nine panels: leukemia, melanoma, lung, colon, CNS, ovarian, renal, prostate and breast cancers using the sulforhodamine B (SRB) assay in a 48 h drug exposure protocol.

[8] = system: SK-OV-3; assay: NCI-60 one-dose SRB screen (Ovarian cancer); assay type: cell-based; conditions: Homo sapiens, single dose 10 µM, 48 h, read-out: Growth inhibition percent (GI %)
[9] = system: OVCAR-8; assay: NCI-60 one-dose SRB screen (Ovarian cancer); assay type: cell-based; conditions: Homo sapiens, single dose 10 µM, 48 h, read-out: Growth inhibition percent (GI %)
[10] = system: IGROV1; assay: NCI-60 one-dose SRB screen (Ovarian cancer); assay type: cell-based; conditions: Homo sapiens, IGROV-1, single dose 10 µM, 48 h, read-out: Growth inhibition percent (GI %)
[11] = system: OVCAR-4; assay: NCI-60 one-dose SRB screen (Ovarian cancer); assay type: cell-based; conditions: Homo sapiens, single dose 10 µM, 48 h, read-out: Growth inhibition percent (GI %)
[12] = system: OVCAR-3; assay: NCI-60 one-dose SRB screen (Ovarian cancer); assay type: cell-based; conditions: Homo sapiens, single dose 10 µM, 48 h, read-out: Growth inhibition percent (GI %)
[13] = system: OVCAR-5; assay: NCI-60 one-dose SRB screen (Ovarian cancer); assay type: cell-based; conditions: Homo sapiens, single dose 10 µM, 48 h, read-out: Growth inhibition percent (GI %)
[14] = system: LOX IMVI; assay: NCI-60 one-dose SRB screen (Melanoma); assay type: cell-based; conditions: Homo sapiens, single dose 10 µM, 48 h, read-out: Growth inhibition percent (GI %)
[15] = system: MDA-MB-435; assay: NCI-60 one-dose SRB screen (Melanoma); assay type: cell-based; conditions: Homo sapiens, single dose 10 µM, 48 h, read-out: Growth inhibition percent (GI %)
[16] = system: NCI/ADR-RES; assay: NCI-60 one-dose SRB screen (Ovarian cancer); assay type: cell-based; conditions: Homo sapiens, single dose 10 µM, 48 h, read-out: Growth inhibition percent (GI %)
[17] = system: MCF-7 breast cancer cell line; assay: In vitro cytotoxicity, MTT assay; conditions: Homo sapiens
Method: In vitro cytotoxic activity:
Firstly, cultures were delivered into sterile area then each vial was supplied with 3 mL of medium or balanced salt solution free from phenol red and serum. Cultures were subjected to incubation foe 2-4 g. After the incubation period, MTT solubilization solution was added to remove the produced formazan crystals. Spectrophotometric measurement of absorbance was carried out at 690 nm for the background which then subtracted from absorbance measured at 570 nm. Five different drug concentrations were used 100, 25, 6.3, 1.6 and 0.4 nM and measured in triplicate.
was determined using Annexin V-FITC Apoptosis Detection Kit (Bio Vision) according to the manufacturer’s procedures. Briefly, cell lines were cultured and incubated with each of the tested compounds for 48 h. Then, the cells were collected by centrifugation and resuspended in 500 μl of 1X binding buffer. 5 μl of Annexin V-FITC was added and 5 μl of propidium iodide (PI 50 mg/ml, optional.). The cells were incubated at room temperature for
Then, the cells were collected by centrifugation and resuspended in 500 μl of 1X binding buffer. 5 μl of Annexin V-FITC was added and 5 μl of propidium iodide (PI 50 mg/ml, optional.). the cells were incubated at room temperature for 5 min in the dark.

[18] = system: MCF-7 breast cancer cell line; assay: Apoptotic assay, Annexin V-FITC/propidium iodide; assay type: cell-based, human
Method: S.1.4. Cell cycle analysis and Apoptotic assay
S.1.4.1. Cell cycle analysis […]
(§1) Briefly, cell lines were cultured and incubated with each of the tested compounds for 48 h. Then, the cells were collected by centrifugation and resuspended in 500 μl of 1X binding buffer. 5 μl of Annexin V-FITC was added and 5 μl of propidium iodide (PI […], optional.). The cells were incubated at room temperature for 5 min in the dark. Annexin V-FITC binding was analyzed by flow cytometry (Ex = 488 nm; Em = 530 nm) using FITC signal detector and PI staining was analyzed by the phycoerythrin emission signal detector.
S.1.4.2. Apoptotic assay: cell lines were cultured and incubated with each of the tested compounds for 48 h.
as §1, with “Then,” for “Briefly, cell lines were cultured and incubated with each of the tested compounds for 48 h. Then,”, “the” for “The”

[19] = system: MCF-7 breast cancer cell line; assay: Cell cycle analysis by flow cytometry; assay type: cell-based, human; conditions: 24 h
[20] = MCF-7, hypoxic conditions, at IC50 (3.50 µM)
[21] = MCF-7, normal conditions, at IC50 (5.21 µM)

| Structure (SMILES) | inhibition at 10 µM [1] [%] | inhibition at 10 µM [2] [%] | inhibition at 10 µM [3] [%] | inhibition at 10 µM [4] [%] | inhibition at 10 µM [5] [%] | inhibition at 10 µM [6] [%] | inhibition at 10 µM [8] [%] | inhibition at 10 µM [9] [%] | inhibition at 10 µM [10] [%] | inhibition at 10 µM [11] [%] | inhibition at 10 µM [12] [%] | inhibition at 10 µM [13] [%] | inhibition at 10 µM [14] [%] | inhibition at 10 µM [15] [%] | inhibition at 10 µM [16] [%] | melting point [°C] | also measured |
| --- | --- | --- | --- | --- | --- | --- | --- | --- | --- | --- | --- | --- | --- | --- | --- | --- | --- |
| NS(=O)(=O)c1ccc(NC(=O)COC(=O)c2cn(-c3ccc(S(N)(=O)=O)cc3)nc2-c2ccc(Br)cc2)cc1 [Compound 4d, 2-Oxo-2-[(4-sulfamoylphenyl)amino] ethyl 3-(4-bromophenyl)-1-(4-sulfamoylphenyl)-1H-pyrazole-4-carboxylate] | 66.5 | 33.9 | 79.9 | 56.4 | 36.9 | 52.3 | < 5 | < 5 | < 5 | 34.6 | 23 | 12.3 | 47.7 | 60.1 | – | – | inhibition at 10 µM [7]: 8.46 to 86.5% |
| CCOC(=O)c1ccc(NC(=O)COC(=O)c2cn(-c3ccc(S(N)(=O)=O)cc3)nc2-c2ccc(C)cc2)cc1 [Compound 5b, 2-[(4-(Ethoxycarbonyl)phenyl)amino]-2-oxoethyl 1-(4-sulfamoylphenyl)-3-(p-tolyl)-1H-pyrazole-4-carboxylate] | 52.5 | 27.8 | 39.7 | 78.6 | 57.9 | 53.5 | < 5 | 12.8 | 21.4 | 58.8 | 53.5 | 33.1 | 53.6 | 47.3 | 22.3 | – | IC50 ([17]; MCF7, read-out: IC50 (µM) ± SD cytotoxic activity, MCF-7, MTT, normal conditions): 5.21 ± 0.21 µM; IC50 ([17]; MCF7, read-out: IC50 (µM) ± SD cytotoxic activity, MCF-7, MTT, under hypoxia): 3.5 ± 0.14 µM; Apoptosis % Early % ([18]; MCF-7, hypoxic conditions): 21.41%; Apoptosis % Late % ([18]; MCF-7, hypoxic conditions): 11.49%; Apoptosis % Total % ([18]; MCF-7, hypoxic conditions): 37.31%; Necrosis % ([18]; MCF-7, hypoxic conditions): 4.41%; Apoptosis % Early % ([18]; MCF-7, normal conditions): 13.52%; Apoptosis % Late % ([18]; MCF-7, normal conditions): 25.05%; Necrosis % ([18]; MCF-7, normal conditions): 3.76%; DNA content % G0-G1 [19, 20]: 48.13%; DNA content % G2/M [19, 20]: 32.28%; DNA content % S [19, 20]: 19.59%; DNA content % G0-G1 [19, 21]: 67.39%; DNA content % G2/M [19, 21]: 3.05%; DNA content % S [19, 21]: 29.56% |
| CS(=O)(=O)c1ccc(-c2nn(-c3ccc(S(N)(=O)=O)cc3)cc2C(=O)NNC(N)=S)cc1 [Compound 9e, 2-[3-(4-(Methylsulfonyl)phenyl)-1-(4-sulfamoylphenyl)-1H-pyrazole-4-carbonyl] hydrazine-1-carbothioamide] | 7.21 | < 5 | < 5 | < 5 | 7.37 | < 5 | < 5 | < 5 | < 5 | < 5 | < 5 | < 5 | < 5 | < 5 | < 5 | 261 to 262 | – |
| Cc1ccc(-c2nn(-c3ccc(S(N)(=O)=O)cc3)cc2-c2nnc(N)s2)cc1 [Compound 10, 4-[4-(5-Amino-1,3,4-thiadiazol-2-yl)-3-(p-tolyl)-1H-pyrazol-1-yl] benzenesulfonamide] | 5.43 | < 5 | 11.2 | 15.8 | 5.02 | 13.2 | < 5 | < 5 | < 5 | < 5 | < 5 | < 5 | 11.8 | < 5 | < 5 | 230 to 234 | – |
| Cc1ccc(-c2nn(-c3ccc(S(N)(=O)=O)cc3)cc2-c2n[nH]c(=S)[nH]2)cc1 [Compound 11, 4-[4-(5-Mercapto-1H-1,2,4-triazol-3-yl)-3-(p-tolyl)-1H-pyrazol-1-yl] benzenesulfonamide] | < 5 | < 5 | < 5 | 6.49 | < 5 | 21.2 | < 5 | < 5 | < 5 | 10.1 | 11.4 | < 5 | 13.5 | < 5 | < 5 | 255 to 257 | – |
